Results: PMC2790557 (Biochemistry, 2009)

Molecular target: CK2 (casein kinase II)

OC[C@H]1O[C@@H](n2cnc3cc(Cl)c(Cl)cc32)[C@H](O)[C@@H]1O [DRB, 5,6-Dichloro-1-(β-D-ribofuranosyl)benzimidazole]
IC50: ~10 µM
